Test results from patent US20140045807A2, “THE USE OF 3-METHOXY-PREGNENOLONE FOR THE PREPARATION OF A DRUG FOR TREATING A TRAUMATIC BRAIN INJURY” (priority 2004, published 2014).

Tests used:
[1] = biological target: ERβ (Homo sapiens, UniProt Q92731); assay: Radioligand binding assay, ERβ; settings: MAP4343 10 μM; 0.5 nM [^3H] Estradiol; Human recombinant Sf9 cells
Experimental: Binding affinity of 3-methoxy-PREG (MAP4343) for receptors of steroid hormones was evaluated using radioligand binding assays.

[2] = Neurosteroids and 3-methoxy-PREG levels in plasma and hippocampus; settings: rat
[3] = 3 h following injection, 10 mg/kg subcutaneously

Chain of ERβ (Q92731 whole entry): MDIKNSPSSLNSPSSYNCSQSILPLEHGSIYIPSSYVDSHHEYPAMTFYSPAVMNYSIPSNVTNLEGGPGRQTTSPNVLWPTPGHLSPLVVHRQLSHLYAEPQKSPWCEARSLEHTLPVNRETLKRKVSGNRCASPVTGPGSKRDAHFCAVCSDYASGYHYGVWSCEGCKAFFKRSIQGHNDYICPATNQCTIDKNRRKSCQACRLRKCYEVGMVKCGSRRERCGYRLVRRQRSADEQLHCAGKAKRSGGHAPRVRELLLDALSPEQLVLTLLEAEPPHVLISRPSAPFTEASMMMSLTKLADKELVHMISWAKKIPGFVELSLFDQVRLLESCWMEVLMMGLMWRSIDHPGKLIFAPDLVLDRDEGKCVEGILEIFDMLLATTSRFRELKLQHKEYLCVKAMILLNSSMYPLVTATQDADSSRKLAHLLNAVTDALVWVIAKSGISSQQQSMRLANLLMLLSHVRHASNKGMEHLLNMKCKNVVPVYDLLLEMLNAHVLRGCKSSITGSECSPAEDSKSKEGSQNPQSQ

CO[C@H]1CC[C@@]2(C)C(=CC[C@H]3[C@@H]4CC[C@H](C(C)=O)[C@@]4(C)CC[C@@H]32)C1 [3-methoxy-PREG, 3β-methoxy-pregna-5-ene-20-one]
% inhibition of specific binding [1]: < 25% | conversion back to PREG or metabolism to PROG ([2]; 3 h after 10 mg/kg subcutaneously): not converted back to PREG or metabolized to PROG | concentration of the drug in hippocampus [2, 3]: 73.3 ± 14.68 ng/g | concentration of the drug in plasma [2, 3]: 21.11 ± 5.04 ng/mL
